Laboratory results taken from US11419881B2, “Treatment of migraine” (priority 2019, dated 2022).
Read-outs that look alike come from different tables or passages of the source.

Columns and labels:
[1] = Hot flashes in menopausal women after nasal administration; assay type: in vivo, human
Description: 16α,17α-Epoxy-10β-hydroxyestr-4-en-3-one decreased parasympathetic system tone resulting in increased sympathetic activity and stimulation of β2 adrenergic receptors in the bronchiole smooth muscle that induced bronchodilation; (b) increased skin conductance amplitude is the result of increased skin secretions, which are produced by preponderance of the sympathetic nervous system tone (or decreased parasympathetic tone); (c) decreased body temperature is explained by increased activity of the posterior (adrenergic) hypothalamus and decreased parasympathetic tone (anterior hypothalamus).

[2] = Ames reverse mutation assay
[3] = Reflex (autonomic) activity after nasal administration in human volunteers; assay type: in vivo; settings: nasal 1.6 μg
Protocol: (§1) The half effective dose of this effect was 0.087 μg.

[4] = Acute and multidose (28 day) toxicity studies, nasal and intravenous; assay type: in vivo, rats, mice, rabbits and dogs
[5] = Reproductive toxicity studies in pregnant rabbits; assay type: in vivo; settings: intravenous up to 2.5 mg/kg/day during organogenesis
[6] = Preclinical pharmacokinetic studies, intravenous doses; assay type: in vivo, rats, rabbits, or dogs; settings: single repeated intravenous doses up to 2.5 mg/kg
[7] = tested on: estrogen receptors; assay: In vitro agonist/antagonist activity on estrogen receptors; assay type: biochemical
[8] = assay type: in vivo, human
[9] = Nasal spray 1.6 μg in women of reproductive age, core body temperature and sympathoadrenergic tone; assay type: in vivo, human
Protocol: It also changed the tone of the sympathoadrenergic system (as assessed by measuring physiologic sinus arrhythmia) within 5 minutes of administration, and the effect persisted for 15 to 20 minutes.

[10] = tested on: nasal chemosensory mucosa; assay: Electrogram from the nasal chemosensory mucosa of human volunteers; assay type: in vivo
Protocol: as §1

[11] = Exploratory single-blind study in chronic migraine subjects (HAM-A, HAM-D, VRS, resting state fMRI)
[12] = in vivo
[13] = In vivo bone marrow micronucleus test
[14] = target: T1, androgen receptors (Homo sapiens, UniProt P10275); assay: In vitro agonist/antagonist activity on androgen receptors; assay type: biochemical
T1 sequence (P10275 1-920): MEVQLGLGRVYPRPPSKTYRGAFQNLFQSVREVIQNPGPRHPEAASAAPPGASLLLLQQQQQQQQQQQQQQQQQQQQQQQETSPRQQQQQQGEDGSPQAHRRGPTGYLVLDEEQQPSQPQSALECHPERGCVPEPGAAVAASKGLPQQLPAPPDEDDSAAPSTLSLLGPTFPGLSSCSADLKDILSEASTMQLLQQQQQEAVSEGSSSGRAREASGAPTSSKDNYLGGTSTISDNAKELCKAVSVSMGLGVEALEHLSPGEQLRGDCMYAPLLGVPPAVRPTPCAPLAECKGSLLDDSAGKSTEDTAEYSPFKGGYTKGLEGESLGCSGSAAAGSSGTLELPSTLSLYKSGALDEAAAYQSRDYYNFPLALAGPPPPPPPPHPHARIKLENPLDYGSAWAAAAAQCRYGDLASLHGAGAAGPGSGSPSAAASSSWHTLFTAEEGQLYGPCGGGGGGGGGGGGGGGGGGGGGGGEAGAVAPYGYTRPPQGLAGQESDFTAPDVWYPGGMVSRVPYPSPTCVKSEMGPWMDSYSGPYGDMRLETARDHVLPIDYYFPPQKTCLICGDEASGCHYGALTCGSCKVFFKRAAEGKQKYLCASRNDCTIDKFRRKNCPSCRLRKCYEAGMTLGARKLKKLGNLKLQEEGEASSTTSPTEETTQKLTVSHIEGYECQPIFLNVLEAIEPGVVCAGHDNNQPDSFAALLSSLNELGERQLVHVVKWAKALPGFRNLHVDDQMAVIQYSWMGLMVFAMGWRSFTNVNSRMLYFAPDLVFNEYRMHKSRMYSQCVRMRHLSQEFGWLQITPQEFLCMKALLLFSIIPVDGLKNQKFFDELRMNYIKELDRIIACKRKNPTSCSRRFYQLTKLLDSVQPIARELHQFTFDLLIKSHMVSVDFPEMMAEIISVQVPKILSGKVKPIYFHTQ

[15] = tested on: nasal septal chemosensory mucosa; assay: Electrophysiology: depolarization of the nasal septal chemosensory mucosa; design: species or system human
[16] = Nasal spray 0.5 μg versus vehicle in 14 women of reproductive age, physiologic parameters; assay type: in vivo, human; settings: compared to vehicle
[17] = Preclinical pharmacokinetic studies, nasal doses; assay type: in vivo; settings: repeated or single escalating nasal doses up to 100 μg/rat, 400 μg/rabbit, 600 μg/dog
[18] = after single dose nasal administration
[19] = women with PMDD, nasal, versus placebo
[20] = migraine subjects, 6.4 μg nasal, relative to placebo

Structure (SMILES): C[C@]12CC[C@H]3[C@@H](CCC4=CC(=O)CC[C@@]43O)[C@@H]1C[C@H]1O[C@H]12 [16α,17α-epoxy-10β-hydroxyestr-4-en-3-one]
- number, severity and bother of hot flashes [1]: decreased number, severity and bother of hot flashes
- mutagenic or clastogenic potential [2]: no evidence of mutagenic or clastogenic potential
- body core temperature (external ear canal) [3]: decreased body core temperature
- cardiac rate [3]: no significant change
- depth of the inspiratory cycle of respiration [3]: significantly increased amplitude
- latency of modulation of reflex activity after the electrogram [3]: 5 to 10 s
- skeletal muscle tone (electromyogram, chin muscles) [3]: decreased skeletal muscle tone
- skin conductance (electrodermal activity) ([3]; palmar surface of fourth and fifth finger): increased amplitude of the skin conductance
- respiration rate ([3]; within physiologic range): decreased respiration rate
- deaths, adverse clinical signs, effects on laboratory or pathology parameters ([4]; same nasal and intravenous doses, all species): no deaths or adverse clinical signs or effects on laboratory or pathology parameters observed
- tolerability ([4]; single nasal up to 100 μg/rat, 400 μg/rabbit, 600 μg/dog, repeated nasal up to 50 μg/rat/day, 300 μg/dog/day, iv single and repeated up to 2.5 mg/kg, 28 day): well tolerated in all species tested
- effects on maternal or litter parameters [5]: no adverse effects on maternal or litter parameters
- plasma concentrations, dose dependence [6]: dose-proportional
- plasma concentrations, time course [6]: decreased rapidly
- agonist or antagonist activity on estrogen receptors [7]: no agonist or antagonist activity
- persistence of improvements [8, 18]: approximately 5 hours
- time to appearance of improvements [8, 18]: ≤ 30 min
- serious adverse events ([8]; in vivo): No serious adverse events were reported
- side effects ([8]; in vivo): minimal and similar to administration of placebo
- cortical behavioral symptoms (headache, tension) [8, 19]: significant improvements
- hypothalamic behavioral symptoms (fatigue, anger, craving for foods) [8, 19]: significant improvements
- limbic system behavioral symptoms (mood swings, depression, lack of interest) [8, 19]: significant improvements
- decrease in core body temperature [9]: 1±0.23 °C
- latency of decrease in core body temperature [9]: 0.5 to 4 min
- persistence of change of sympathoadrenergic tone [9]: 15 to 20 min
- persistence of decrease in core body temperature [9]: 9 ± 2.5 min
- time to change of sympathoadrenergic tone (physiologic sinus arrhythmia) [9]: ≤ 5 minutes
- half effective dose of electrogram activation ([10]; human volunteers of both sexes): 0.087 µg
- activation of the electrogram recorded from the nasal chemosensory mucosa ([10]; microgram quantities, volunteers of both sexes): concentration dependent activation
- functional connectivity of the amygdala with the anterior occipital lobe and right middle occipital lobe (fMRI) [11, 20]: increased functional connectivity
- functional connectivity of the hypothalamus with the anterior orbital gyrus, right medial orbital gyrus and pons (fMRI) [11, 20]: decreased functional connectivity
- functional connectivity of the right thalamus with left orbitofrontal cortex, superior parietal lobe, left insular cortex and left primary motor cortex (fMRI) [11, 20]: decreased functional connectivity
- functional connectivity of the right thalamus with the left somatosensory cortex (fMRI) [11, 20]: increased functional connectivity
- tolerability ([11]; single nasal 6.4 μg, all three subjects): tolerated
- mean decrease in headache pain intensity score (VRS, 6-point) relative to placebo ([11]; two migraine subjects, single nasal 6.4 μg, 15 minutes, p<0.01): 2.5
- anxiety scores (HAM-A) ([11]; two migraine subjects, single nasal 6.4 μg, p<0.01): significantly improved
- depression scores (HAM-D) ([11]; two migraine subjects, single nasal 6.4 μg, not statistically significant): improvement trend
- systemic exposure [12]: lack of systemic exposure
- mutagenic or clastogenic potential [13]: no evidence of mutagenic or clastogenic potential
- agonist or antagonist activity on androgen receptors [14]: no agonist or antagonist activity
- depolarization of the nasal septal chemosensory mucosa [15]: electrotonic depolarization
- cardiac frequency [16]: not statistically significant increase
- core body temperature [16]: statistically significant decreases
- galvanic skin reflex [16]: statistically significant decreases
- respiratory frequency [16]: statistically significant decreases
- skeletal muscle tone [16]: statistically significant decreases
- systemic exposure [17]: very low systemic exposure
